Measurements from PMC7038240 (Antimicrobial Agents and Chemotherapy, 2020).
Where two headings read alike, the source gives them in different places.

Legend:
Assay in all cases: microbe, parasite or virus in culture
Assay type in all cases: cell-based
C. freundii = conditions: Citrobacter freundii
From the text: (§1) The antibacterial activity of cefepime-taniborbactam was compared to that of ceftazidime-avibactam, ceftolozane-tazobactam, and cefepime-tazobactam against a diverse panel of Enterobacterales and P. aeruginosa clinical isolates with defined β-lactamase subtypes (see Table S1 in the supplemental material). IMP-producing strains were excluded, as none of the BLI-protected cephalosporins inhibited IMP sufficiently to provide a clinically relevant rescue of the partner β-lactam, a characteristic also shared by approved BLI-protected carbapenems (meropenem-vaborbactam and imipenem-relebactam). […] The antibacterial activity of the cephalosporins alone was included to ascertain the level of potentiation by the partnered BLI. BLIs were tested at a fixed concentration of 4 μg/ml in all combinations except cefepime-tazobactam, where tazobactam was fixed at a concentration of 8 μg/ml ([38]). The collection comprised 143 clinical isolates collected from 2005 and 2018.
(§2) The in vitro antibacterial activity of the β-lactams alone or in combination with the BLIs was determined in cation-adjusted Mueller-Hinton broth (CAMHB) microdilution assays according to CLSI recommendations ([51]). […]. The inocula for the broth microdilution assays were prepared by the broth culture method ([51]). […]

E. coli = conditions: Escherichia coli, read-out: MIC
From the text: as §1, §2

K. aerogenes = conditions: Klebsiella aerogenes
From the text: as §1, §2

K. oxytoca = conditions: Klebsiella oxytoca, read-out: MIC
From the text: as §1, §2

K. pneumoniae = conditions: Klebsiella pneumoniae, read-out: MIC
From the text: as §1, §2

`CO/N=C(\C(=O)N[C@@H]1C(=O)N2C(C(=O)[O-])=C(C[N+]3(C)CCCC3)CS[C@H]12)c1csc(N)n1` [FEP] was tested, and the MIC (C. freundii; strain 134390, AmpC/TEM-1) was 0.5 mg/L, the MIC (C. freundii; strain 241181, AmpC/TEM-163) was 8 mg/L and the MIC (E. coli; ATCC25922, E. coli ATCC 25922, enzyme content None) was 0.06 mg/L. It also gave an MIC (E. coli; E. coli CDC-0452, NDM) of 64 mg/L, an MIC (E. coli; NCTC13353, E. coli NCTC 13353, CTX-M-15) of 64 mg/L and an MIC (E. coli; strain 469, AmpC/SHV-12/TEM-1) of 1 mg/L. For the same molecule, the MIC (E. coli; strain 1924, TEM-12) was 16 mg/L, the MIC (E. coli; strain 664507, OXA-48) was 16 mg/L and the MIC (E. coli; strain 664516, OXA-48) was 64 mg/L. For the same molecule, the MIC (E. coli; strain 664520, OXA-48) was 32 mg/L, the MIC (E. coli; strain 664522, OXA-48) was 64 mg/L and the MIC (E. coli; strain 664523, OXA-48) was 128 mg/L. The MIC (E. coli; strain 849121, KPC) was 64 mg/L, the MIC (E. coli; strain 873435, CTX-M-15) was 128 mg/L and the MIC (E. coli; strain 875627, CTX-M-27) was 8 mg/L. The MIC (E. coli; strain 878358, TEM-1/CTX-M) was ≥ 256 mg/L, the MIC (E. coli; strain 890500, TEM-1/CTX-M-14) was 64 mg/L and the MIC (E. coli; strain 1275635, VIM-23) was 64 mg/L. For the same molecule, the MIC (E. coli; strain 1459453, NDM-7) was ≥ 256 mg/L, the MIC (E. coli; strain CDC-0001, KPC) was 128 mg/L and the MIC (E. coli; strain CDC-0069, NDM) was 32 mg/L. The MIC (E. coli; strain CDC-0149, NDM) was ≥ 256 mg/L, the MIC (E. coli; strain EC1552 2A, AmpC/CMY-2/TEM-1, CTX-M-15) was 4 mg/L and the MIC (E. coli; strain ESBL 5, CTX-M-15/TEM-1) was ≥ 256 mg/L. For the same molecule, the MIC (E. coli; strain SI-LP377, CTX-M-2) was 64 mg/L, the MIC (E. coli; strain SI-M004, SHV-2/GES-12) was 16 mg/L and the MIC (E. coli; strain SI-PO26, AmpC/CMY-2/TEM-1) was 0.25 mg/L. It also gave an MIC (E. coli; strain SI-V502, TEM-29/CTX-M-15) of 8 mg/L, an MIC (E. coli; strain VER, OXA-48) of 0.5 mg/L and an MIC (K. aerogenes; strain 73546, AmpC) of 0.5 mg/L. It also gave an MIC (K. aerogenes; strain 110099, AmpC/SHV-12) of 4 mg/L, an MIC (K. aerogenes; strain 111707, AmpC/TEM-1) of 4 mg/L and an MIC (K. oxytoca; strain 134943, CMY-2/TEM-1) of 4 mg/L. It also gave an MIC (K. oxytoca; strain 847537, KPC) of 32 mg/L, an MIC (K. pneumoniae; ATCC13883, K. pneumoniae ATCC 13883, enzyme content None) of 0.06 mg/L and an MIC (K. pneumoniae; BAA1705, K. pneumoniae BAA 1705, KPC-2) of 16 mg/L. It also gave an MIC (K. pneumoniae; K. pneumoniae CDC-0049 (NDM), BLI fixed at 4 μg/ml) of 256 mg/L, an MIC (K. pneumoniae; strain 6299, OXA-163) of 64 mg/L and an MIC (K. pneumoniae; strain 137052, SHV-11/KPC-3/TEM-1) of 16 mg/L. For the same molecule, the MIC (K. pneumoniae; strain 178279, SHV-12/TEM-1/AmpC) was 8 mg/L, the MIC (K. pneumoniae; strain 196477, AmpC) was 16 mg/L and the MIC (K. pneumoniae; strain 212027, AmpC/FOX-5/TEM-1) was 2 mg/L. It also gave an MIC (K. pneumoniae; strain 515746, OXA-48) of 32 mg/L, an MIC (K. pneumoniae; strain 664438, OXA-48) of 32 mg/L and an MIC (K. pneumoniae; strain 664439, OXA-48) of 32 mg/L. For the same molecule, the MIC (K. pneumoniae; strain 722870, OXA-48) was 8 mg/L, the MIC (K. pneumoniae; strain 752334, OXA-48) was 128 mg/L and the MIC (K. pneumoniae; strain 769972, OXA-48) was 16 mg/L. For the same molecule, the MIC (K. pneumoniae; strain 787422, OXA-48) was 64 mg/L, the MIC (K. pneumoniae; strain 845661, KPC) was ≥ 256 mg/L and the MIC (K. pneumoniae; strain 847204, KPC) was 32 mg/L. For the same molecule, the MIC (K. pneumoniae; strain 848562, KPC) was ≥ 256 mg/L, the MIC (K. pneumoniae; strain 848600, KPC) was ≥ 256 mg/L and the MIC (K. pneumoniae; strain 848828, KPC) was ≥ 256 mg/L. The MIC (K. pneumoniae; strain 849170, KPC) was ≥ 256 mg/L, the MIC (K. pneumoniae; strain 856819, SHV-11/VIM-1) was 32 mg/L and the MIC (K. pneumoniae; strain 864085, KPC) was 32 mg/L. The MIC (K. pneumoniae; strain 871489, KPC) was ≥ 256 mg/L, the MIC (K. pneumoniae; strain 873460, SHV-30/CTX-M-15) was 32 mg/L and the MIC (K. pneumoniae; strain 874328, SHV-11/CTX-M-15/NDM-1) was 128 mg/L. The MIC (K. pneumoniae; strain 882752, SHV-11/TEM-1/KPC-3) was 128 mg/L, the MIC (K. pneumoniae; strain 882956, SHV-31/DHA-1/VIM-1) was 16 mg/L and the MIC (K. pneumoniae; strain 884679, KPC) was 32 mg/L. The MIC (K. pneumoniae; strain 890066, SHV-33/TEM-33/CTX-M-15/IMP-1) was 64 mg/L, the MIC (K. pneumoniae; strain 892694, SHV-12/TEM-1/CTX-M-15/OXA-48/ACT) was 32 mg/L and the MIC (K. pneumoniae; strain 919877, SHV-OSBL/VIM-1) was 128 mg/L. The MIC (K. pneumoniae; strain 1104864, SHV-OSBL(b)/VIM-1) was ≥ 256 mg/L and the MIC (K. pneumoniae; strain 1104866, SHV-OSBL(b)/VIM-1) was ≥ 256 mg/L.
